Values after ≈ are worked out from the molar mass of the structure shown.
Columns and labels:
[1] = Oral bioavailability in Han-Wistar rat at […]; assay type: ADME, organism-based; settings: in vivo
Rattus norvegicus [2] = test: Antiinflammatory activity in streptococcal cell wall reactivation Lewis rat model assessed as reduction of joint swelling at 0.3 mg/kg administered once daily for 8 days by oral gavage starting 1 day prior to streptococcal cell wall challenge measured during 6 days post challenge relative to control; assay type: functional; design: scale not given: the % may be the effect or the level left
[3] = Aqueous solubility of the compound; assay type: physicochemical; settings: aqueous; read-out: solubility
Glucocorticoid receptor [4] = target: T1, Glucocorticoid receptor (Homo sapiens, UniProt P04150)
T1 sequence (P04150 whole entry): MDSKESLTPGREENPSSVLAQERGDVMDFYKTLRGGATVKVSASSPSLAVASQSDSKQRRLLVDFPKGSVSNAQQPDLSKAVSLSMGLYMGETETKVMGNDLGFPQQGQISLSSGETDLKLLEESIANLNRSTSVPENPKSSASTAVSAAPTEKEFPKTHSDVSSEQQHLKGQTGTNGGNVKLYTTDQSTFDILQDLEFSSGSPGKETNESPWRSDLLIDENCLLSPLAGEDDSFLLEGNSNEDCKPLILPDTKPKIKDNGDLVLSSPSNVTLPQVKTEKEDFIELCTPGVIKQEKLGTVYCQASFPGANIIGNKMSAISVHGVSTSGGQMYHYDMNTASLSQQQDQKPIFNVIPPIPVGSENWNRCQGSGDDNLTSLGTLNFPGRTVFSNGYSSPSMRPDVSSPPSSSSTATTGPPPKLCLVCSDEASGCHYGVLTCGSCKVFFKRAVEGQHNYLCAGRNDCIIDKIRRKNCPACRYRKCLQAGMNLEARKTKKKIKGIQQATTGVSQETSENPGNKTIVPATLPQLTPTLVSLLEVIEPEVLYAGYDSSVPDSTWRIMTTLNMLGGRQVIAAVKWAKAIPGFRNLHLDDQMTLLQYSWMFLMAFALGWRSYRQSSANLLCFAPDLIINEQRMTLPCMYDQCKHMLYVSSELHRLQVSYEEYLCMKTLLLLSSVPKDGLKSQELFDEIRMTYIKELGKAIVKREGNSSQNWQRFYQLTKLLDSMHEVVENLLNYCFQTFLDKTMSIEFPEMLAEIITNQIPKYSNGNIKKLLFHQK
Description: Transactivation activity at glucocorticoid receptor (unknown origin) expressed in human ChaGoK1 cells incubated for 24 hrs by beta-galactosidase reporter gene assay

Rattus norvegicus [5] = test: Antiinflammatory activity in streptococcal cell wall reactivation Lewis rat model assessed as reduction of joint swelling at 0.1 mg/kg administered once daily for 8 days by oral gavage starting 1 day prior to streptococcal cell wall challenge measured during 6 days post challenge relative to control; assay type: functional; design: scale not given: the % may be the effect or the level left
Glucocorticoid receptor [6] = target: T2, Glucocorticoid receptor (Rattus norvegicus, UniProt P06536); test: Modulation of glucocorticoid receptor in rat plasma
T2 sequence (P06536 whole entry): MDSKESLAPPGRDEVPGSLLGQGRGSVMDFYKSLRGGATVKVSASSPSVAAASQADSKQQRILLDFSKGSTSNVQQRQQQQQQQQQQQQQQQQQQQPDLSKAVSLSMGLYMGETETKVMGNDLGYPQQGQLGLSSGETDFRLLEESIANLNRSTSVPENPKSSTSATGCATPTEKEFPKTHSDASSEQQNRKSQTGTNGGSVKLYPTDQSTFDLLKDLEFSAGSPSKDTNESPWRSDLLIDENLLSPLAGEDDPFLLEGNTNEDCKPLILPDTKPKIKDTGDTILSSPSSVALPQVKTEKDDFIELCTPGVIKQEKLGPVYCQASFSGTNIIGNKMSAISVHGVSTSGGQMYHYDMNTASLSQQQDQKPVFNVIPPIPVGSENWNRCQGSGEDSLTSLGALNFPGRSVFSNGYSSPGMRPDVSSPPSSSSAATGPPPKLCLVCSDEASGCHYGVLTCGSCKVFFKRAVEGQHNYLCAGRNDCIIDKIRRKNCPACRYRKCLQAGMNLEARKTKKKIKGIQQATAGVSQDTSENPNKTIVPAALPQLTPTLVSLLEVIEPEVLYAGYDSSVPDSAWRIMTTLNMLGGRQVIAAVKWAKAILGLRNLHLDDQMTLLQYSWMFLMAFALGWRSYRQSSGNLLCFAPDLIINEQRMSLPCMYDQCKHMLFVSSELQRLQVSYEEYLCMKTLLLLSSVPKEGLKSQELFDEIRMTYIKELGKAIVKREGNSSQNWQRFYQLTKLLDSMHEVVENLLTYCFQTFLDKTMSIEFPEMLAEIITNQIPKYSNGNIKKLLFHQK

Estrogen receptor = target: T3, Estrogen receptor (Homo sapiens, UniProt P03372); test: Binding affinity to human ERalpha expressed in Sf9 cells by fluoligand binding-based fluorescence polarization method
T3 sequence (P03372 whole entry): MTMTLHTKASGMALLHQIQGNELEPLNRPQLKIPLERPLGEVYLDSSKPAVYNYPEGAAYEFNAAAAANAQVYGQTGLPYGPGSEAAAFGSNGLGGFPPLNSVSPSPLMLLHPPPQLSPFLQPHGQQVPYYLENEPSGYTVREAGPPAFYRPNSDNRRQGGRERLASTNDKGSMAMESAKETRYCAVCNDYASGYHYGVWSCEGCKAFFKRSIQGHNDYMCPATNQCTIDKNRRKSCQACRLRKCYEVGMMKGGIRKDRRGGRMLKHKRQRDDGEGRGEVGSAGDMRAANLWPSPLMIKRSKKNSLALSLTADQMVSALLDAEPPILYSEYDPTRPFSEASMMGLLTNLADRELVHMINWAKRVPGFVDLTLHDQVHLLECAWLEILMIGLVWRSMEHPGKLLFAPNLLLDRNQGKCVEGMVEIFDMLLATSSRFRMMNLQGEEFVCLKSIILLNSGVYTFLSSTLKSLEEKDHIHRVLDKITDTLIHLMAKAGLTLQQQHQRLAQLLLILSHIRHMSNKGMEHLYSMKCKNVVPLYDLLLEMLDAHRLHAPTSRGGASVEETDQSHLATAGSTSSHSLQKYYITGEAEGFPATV

Glucocorticoid receptor [7] = target: T1, Glucocorticoid receptor; remark: listed apart in the source
Description: Transrepression of GR in human whole blood assessed as inhibition of LPS-induced TNF-alpha release preincubated for 45 mins followed by LPS addition after 18 hrs by AlphaLISA method

bioavailability [1]: 52%
solubility [3]: 55 µM (≈ 27.2 µg/mL)
EC50 (Glucocorticoid receptor [4]): 11 nM
IC50 (Glucocorticoid receptor [6]): 30 nM
IC50 (Estrogen receptor): > 100000 nM
IC50 (Glucocorticoid receptor [7]): 680 nM
Compound: CC(C)[C@H](NC(=O)C(C)(F)F)[C@H](Oc1ccc2c(cnn2-c2ccc(=O)n(C)c2)c1)c1ccccc1 [MIZACORAT]
Activity (Rattus norvegicus [2]): 66%
Activity (Rattus norvegicus [5]): 42%

Reference: ChEMBL document CHEMBL4190372, “Discovery of a Novel Oral Glucocorticoid Receptor Modulator (AZD9567) with Improved Side Effect Profile” (J Med Chem, 2018)
